These results are taken from patent publication EP4745137A1 (Gluetacs Therapeutics (Shanghai) Co., Ltd., priority 2023, dated 2025).

Assay [1] concerns Human breast cancer cells (MDA-MB-231). The experiment in a line: Tumor cell proliferation inhibition (CellTiter-Meiluncell Luminescent Cell Viability Assay), MDA-MB-231. The following applies: MDA-MB-231, 96 h, read-out: inhibitory activity (IC50, nM) against tumor cells proliferation, MDA-MB-231.
Assay [2] addresses T1, IKZF1 (Homo sapiens, UniProt Q13422+Q96SW2).
T1 construct: endogenous in cells; host or cells: hPBMCs (Milecell Biotechnologies)
The experiment in a line: Western-blot assay of substrate protein degradation in hPBMCs, IKZF1. It is filed as cell-based. The note with it: 24 hours of compound treatment, compounds tested at 50 nM and 500 nM (concentration of the table not stated).

The subject of assay [3] is Human acute T lymphocytic leukemia cells (Molt-4). As to the kind of experiment: Tumor cell proliferation inhibition (CellTiter-Meiluncell Luminescent Cell Viability Assay), Molt-4. The following applies: MOLT-4, 96 h, read-out: inhibitory activity (IC50, nM) against tumor cells proliferation, Molt 4.
Assay [4] addresses T2, CK1α (Homo sapiens, UniProt P48729+Q96SW2).
T2 construct: endogenous in cells; host or cells: hPBMCs (Milecell Biotechnologies)
The experiment in a line: Western-blot assay of substrate protein degradation in hPBMCs, CK1α. It is filed as cell-based. The note with it: 24 hours of compound treatment, compounds tested at 50 nM and 500 nM (concentration of the table not stated).

Assay [5] concerns the target T3, GSPT1 (Homo sapiens, UniProt P15170+Q96SW2).
T3 construct: endogenous in cells; host or cells: hPBMCs (Milecell Biotechnologies)
The experiment in a line: Western-blot assay of substrate protein degradation in hPBMCs, GSPT1. It is filed as cell-based. The following applies: 24 hours of compound treatment, compounds tested at 50 nM and 500 nM (concentration of the table not stated).

Assay [6] deals with T4, human Cereblon WT GST-tagged protein (Homo sapiens, UniProt Q96SW2).
T4 construct: purchased CISBIO 64BDCRBNPEH
As to the kind of experiment: CRBN-binding affinity by HTRF (CEREBLON BINDING kit). The note with it: HTRF inhibitory activity, CEREBLON BINDING kit; read-out: HTRF IC50. On the technique in general: In TR-FRET formats the signal depends on donor and acceptor labels being close together.

Assay [7] concerns TMD8. The experiment in a line: Tumor cell proliferation inhibition (CellTiter-Meiluncell Luminescent Cell Viability Assay), TMD8. The note with it: Homo sapiens, TMD8, 96 h, read-out: inhibitory activity (IC50, nM) against tumor cells proliferation, TMD8.
Procedure: The tumor cells used herein were cultured in a cell culture medium listed in table 2 at 37°C in an incubator with 5% CO2. Prior to experimentation, all cell lines used were correctly identified by STR profiling, and tested negative for mycoplasma contamination using a mycoplasma detection kit through routine screenings.
On the following day, the test compounds of the present disclosure were subjected to serial dilution. […] Subsequently, 0.5 µL of the test compound dilution was transferred into the 96-well plate containing the cells, with each well containing 100 µL of cell culture medium. […] Into the 96-well plate, the diluted test compounds and corresponding detection reagents were added, resulting in final test compound concentrations of 500 nM and 10 nM, respectively. The experimental procedure is described below using the diluted 2 µM test compound as an example.
After the cells were treated with the compounds of the present disclosure for a specified period (the treatment durations were shown in Table 3), the cell viability assay reagent was added to the culture medium according to the kit's instructions to determine cell viability. […] All controls were treated using the same procedure as the compounds of the present disclosure. The growth inhibition curves for the compounds of the present disclosure were plotted using Prism GraphPad software, and the IC50 values were calculated therefrom.
The test system of assay [8] is NCI-H1975. As to the kind of experiment: Tumor cell proliferation inhibition (CellTiter-Meiluncell Luminescent Cell Viability Assay), NCI-H1975. The note with it: Homo sapiens, NCI-H1975, 96 h, read-out: inhibitory activity (IC50, nM) against tumor cells proliferation, H1975.
Assay [9] concerns the target T5, IKZF3 (Homo sapiens, UniProt Q96SW2+Q9UKT9).
T5 construct: endogenous in cells; host or cells: hPBMCs (Milecell Biotechnologies)
As to the kind of experiment: Western-blot assay of substrate protein degradation in hPBMCs, IKZF3. Format: cell-based. The following applies: 24 hours of compound treatment, compounds tested at 50 nM and 500 nM (concentration of the table not stated).

The target of assay [10] is T6, WEE1 (Homo sapiens, UniProt P30291+Q96SW2).
T6 construct: endogenous in cells; host or cells: hPBMCs (Milecell Biotechnologies)
The experiment in a line: Western-blot assay of substrate protein degradation in hPBMCs, WEE1. It is filed as cell-based. The note with it: 24 hours of compound treatment, compounds tested at 50 nM and 500 nM (concentration of the table not stated).

Assay [11] has as its target T7, IKZF2 (Homo sapiens, UniProt Q96SW2+Q9UKS7).
T7 construct: endogenous in cells; host or cells: hPBMCs (Milecell Biotechnologies)
The experiment in a line: Western-blot assay of substrate protein degradation in hPBMCs, IKZF2. It is filed as cell-based. The note with it: 24 hours of compound treatment, compounds tested at 50 nM and 500 nM (concentration of the table not stated).

T5 sequence (Q9UKT9 whole entry): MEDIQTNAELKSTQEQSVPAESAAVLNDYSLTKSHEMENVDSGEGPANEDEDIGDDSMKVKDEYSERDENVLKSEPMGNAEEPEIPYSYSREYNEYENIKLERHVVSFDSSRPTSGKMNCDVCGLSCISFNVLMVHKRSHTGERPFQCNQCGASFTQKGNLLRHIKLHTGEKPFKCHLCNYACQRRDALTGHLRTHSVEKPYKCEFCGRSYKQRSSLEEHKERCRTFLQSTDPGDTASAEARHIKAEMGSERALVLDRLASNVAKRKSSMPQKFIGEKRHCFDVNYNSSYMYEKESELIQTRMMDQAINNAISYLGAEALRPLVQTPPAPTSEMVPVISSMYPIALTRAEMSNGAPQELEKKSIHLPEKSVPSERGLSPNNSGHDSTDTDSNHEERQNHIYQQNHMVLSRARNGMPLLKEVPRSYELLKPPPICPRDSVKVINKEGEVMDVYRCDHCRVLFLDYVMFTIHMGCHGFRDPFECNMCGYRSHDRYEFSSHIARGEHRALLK
T5 sequence (Q96SW2 whole entry): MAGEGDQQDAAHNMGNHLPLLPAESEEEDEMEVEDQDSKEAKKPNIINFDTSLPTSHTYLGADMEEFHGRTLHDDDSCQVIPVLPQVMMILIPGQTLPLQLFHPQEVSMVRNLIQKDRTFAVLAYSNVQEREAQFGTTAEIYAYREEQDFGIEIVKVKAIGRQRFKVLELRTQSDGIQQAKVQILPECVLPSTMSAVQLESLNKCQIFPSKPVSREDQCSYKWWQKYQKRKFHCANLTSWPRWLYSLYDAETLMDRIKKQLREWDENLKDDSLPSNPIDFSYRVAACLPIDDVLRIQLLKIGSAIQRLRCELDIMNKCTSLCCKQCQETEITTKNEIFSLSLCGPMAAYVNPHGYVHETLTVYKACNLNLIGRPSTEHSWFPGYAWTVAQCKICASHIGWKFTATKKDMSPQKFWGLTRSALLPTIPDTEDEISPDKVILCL
T5 sequence (Q16531 whole entry partner): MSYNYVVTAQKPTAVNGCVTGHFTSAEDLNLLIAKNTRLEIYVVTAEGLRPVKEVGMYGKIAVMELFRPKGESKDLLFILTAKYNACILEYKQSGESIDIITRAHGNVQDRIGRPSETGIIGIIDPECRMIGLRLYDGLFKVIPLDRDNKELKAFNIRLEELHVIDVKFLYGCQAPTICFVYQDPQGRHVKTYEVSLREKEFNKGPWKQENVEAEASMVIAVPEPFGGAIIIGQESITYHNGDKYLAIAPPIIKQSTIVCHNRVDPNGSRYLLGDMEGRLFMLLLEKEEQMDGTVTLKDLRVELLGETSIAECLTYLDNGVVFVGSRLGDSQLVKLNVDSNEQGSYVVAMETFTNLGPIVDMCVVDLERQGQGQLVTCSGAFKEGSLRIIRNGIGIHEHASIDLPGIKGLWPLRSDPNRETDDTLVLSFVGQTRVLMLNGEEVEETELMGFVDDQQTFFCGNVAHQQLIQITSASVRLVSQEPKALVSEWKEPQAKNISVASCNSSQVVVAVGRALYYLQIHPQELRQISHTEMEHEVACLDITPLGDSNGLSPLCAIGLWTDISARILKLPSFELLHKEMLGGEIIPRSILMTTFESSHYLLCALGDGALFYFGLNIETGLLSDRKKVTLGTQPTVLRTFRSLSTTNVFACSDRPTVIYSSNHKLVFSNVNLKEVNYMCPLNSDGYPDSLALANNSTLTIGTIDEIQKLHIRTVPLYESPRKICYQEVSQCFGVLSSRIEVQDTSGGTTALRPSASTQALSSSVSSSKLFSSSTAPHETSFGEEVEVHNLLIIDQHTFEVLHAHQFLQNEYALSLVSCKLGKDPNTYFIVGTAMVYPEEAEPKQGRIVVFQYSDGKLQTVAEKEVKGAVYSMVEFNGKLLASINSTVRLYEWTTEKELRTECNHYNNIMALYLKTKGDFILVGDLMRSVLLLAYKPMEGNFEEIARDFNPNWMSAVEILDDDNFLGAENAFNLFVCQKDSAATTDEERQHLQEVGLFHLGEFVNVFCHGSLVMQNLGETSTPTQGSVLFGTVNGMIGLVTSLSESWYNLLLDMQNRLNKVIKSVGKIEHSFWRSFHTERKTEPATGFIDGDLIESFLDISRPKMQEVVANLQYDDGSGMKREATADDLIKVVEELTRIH
T7 sequence (Q9UKS7 whole entry): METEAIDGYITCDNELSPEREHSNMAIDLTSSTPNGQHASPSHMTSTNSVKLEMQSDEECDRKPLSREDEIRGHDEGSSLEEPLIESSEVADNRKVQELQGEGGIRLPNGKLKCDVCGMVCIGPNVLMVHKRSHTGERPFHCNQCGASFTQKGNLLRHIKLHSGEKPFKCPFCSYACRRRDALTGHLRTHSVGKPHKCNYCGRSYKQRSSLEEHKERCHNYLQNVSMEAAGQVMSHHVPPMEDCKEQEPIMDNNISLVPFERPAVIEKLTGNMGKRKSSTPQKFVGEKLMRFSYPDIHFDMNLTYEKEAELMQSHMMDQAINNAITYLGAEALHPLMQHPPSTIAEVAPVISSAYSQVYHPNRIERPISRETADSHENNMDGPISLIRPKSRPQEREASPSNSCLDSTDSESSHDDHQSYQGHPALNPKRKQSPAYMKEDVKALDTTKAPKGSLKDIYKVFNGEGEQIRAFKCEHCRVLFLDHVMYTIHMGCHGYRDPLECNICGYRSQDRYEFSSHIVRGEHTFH
T7 sequence (Q96SW2 whole entry): as the sequence (Q96SW2 whole entry) above
T7 sequence (Q16531 whole entry partner): as the sequence (Q16531 whole entry partner) above
T6 sequence (P30291 whole entry): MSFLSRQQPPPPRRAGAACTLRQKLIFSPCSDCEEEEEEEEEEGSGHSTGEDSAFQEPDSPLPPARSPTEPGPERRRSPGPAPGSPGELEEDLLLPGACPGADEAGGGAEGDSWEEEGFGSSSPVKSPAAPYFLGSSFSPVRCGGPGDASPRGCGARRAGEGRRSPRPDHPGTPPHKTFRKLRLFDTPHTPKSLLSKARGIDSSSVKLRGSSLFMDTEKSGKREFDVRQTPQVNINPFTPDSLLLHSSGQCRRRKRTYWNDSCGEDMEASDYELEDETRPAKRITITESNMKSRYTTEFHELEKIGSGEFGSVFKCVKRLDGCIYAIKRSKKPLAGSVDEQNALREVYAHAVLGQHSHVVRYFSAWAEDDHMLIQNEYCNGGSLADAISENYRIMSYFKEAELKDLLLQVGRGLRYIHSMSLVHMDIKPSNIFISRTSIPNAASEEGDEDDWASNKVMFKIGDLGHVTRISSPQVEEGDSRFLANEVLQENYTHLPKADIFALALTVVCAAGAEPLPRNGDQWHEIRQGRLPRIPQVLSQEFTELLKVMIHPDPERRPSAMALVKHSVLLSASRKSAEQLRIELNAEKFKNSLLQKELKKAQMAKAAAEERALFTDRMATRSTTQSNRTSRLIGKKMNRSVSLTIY
T6 sequence (Q96SW2 whole entry): as the sequence (Q96SW2 whole entry) above
T6 sequence (Q16531 whole entry partner): as the sequence (Q16531 whole entry partner) above
T4 sequence (Q96SW2 whole entry): as the sequence (Q96SW2 whole entry) above
T1 sequence (Q13422 whole entry): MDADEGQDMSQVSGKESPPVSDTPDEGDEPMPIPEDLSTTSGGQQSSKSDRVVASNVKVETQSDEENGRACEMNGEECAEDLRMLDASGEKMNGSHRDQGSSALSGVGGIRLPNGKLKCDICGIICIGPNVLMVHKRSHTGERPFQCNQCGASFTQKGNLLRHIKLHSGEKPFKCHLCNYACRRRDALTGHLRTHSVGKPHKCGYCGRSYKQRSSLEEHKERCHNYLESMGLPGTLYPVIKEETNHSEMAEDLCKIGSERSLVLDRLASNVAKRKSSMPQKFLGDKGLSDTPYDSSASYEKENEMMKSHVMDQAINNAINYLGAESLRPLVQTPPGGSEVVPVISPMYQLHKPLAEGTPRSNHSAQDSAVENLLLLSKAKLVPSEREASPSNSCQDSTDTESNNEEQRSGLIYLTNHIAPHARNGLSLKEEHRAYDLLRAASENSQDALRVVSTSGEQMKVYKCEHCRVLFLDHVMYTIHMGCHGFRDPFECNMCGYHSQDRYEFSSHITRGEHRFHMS
T1 sequence (Q96SW2 whole entry): as the sequence (Q96SW2 whole entry) above
T1 sequence (Q16531 whole entry partner): as the sequence (Q16531 whole entry partner) above
T2 sequence (P48729 whole entry): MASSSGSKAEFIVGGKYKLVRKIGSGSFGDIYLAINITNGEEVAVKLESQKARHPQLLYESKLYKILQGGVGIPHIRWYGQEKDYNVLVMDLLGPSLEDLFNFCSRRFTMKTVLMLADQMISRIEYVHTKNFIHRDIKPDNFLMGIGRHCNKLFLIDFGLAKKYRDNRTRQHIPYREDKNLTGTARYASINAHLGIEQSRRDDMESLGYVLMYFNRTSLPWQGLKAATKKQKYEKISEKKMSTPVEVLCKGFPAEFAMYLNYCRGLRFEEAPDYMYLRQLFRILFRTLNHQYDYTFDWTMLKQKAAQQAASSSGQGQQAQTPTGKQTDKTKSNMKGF
T2 sequence (Q96SW2 whole entry): as the sequence (Q96SW2 whole entry) above
T2 sequence (Q16531 whole entry partner): as the sequence (Q16531 whole entry partner) above

Regarding `O=C1CCC(N2Cc3cc(CN4CC=C(c5cccc6cnccc56)CC4)ccc3C2=O)C(=O)N1` (stereo not shown) [GT-04666, 3-(5-((4-(isoquinolin-5-yl)-3,6-dihydropyridin-1(2H)-yl)methyl)-1-oxoisoindolin-2-yl)piperidine-2,6-dione], the IC50 in assay [1] was 5 to 10 nM; in assay [3], 1 to 5 nM; in assay [6] it was under 500 nM; in assay [7] it was 10 to 50 nM; in [8], 10 to 50 nM. Also, the “IKZF 1 substrate protein remaining %” value in assay [2] was “A (0% ≤ substrate protein remaining % ≤ 80%)”. For the same compound, the “CK1a substrate protein remaining %” value in assay [4] was “A (0% ≤ substrate protein remaining % ≤ 80%)”. Also, the “GSPT1 substrate protein remaining %” value in [5] was “A (0% ≤ substrate protein remaining % ≤ 80%)”. Besides, in assay [9], the “IKZF3 substrate protein remaining %” value is reported as “A (0% ≤ substrate protein remaining % ≤ 80%)”. For the same compound, the “Weel substrate protein remaining %” value in assay [10] is on record as “A (0% ≤ substrate protein remaining % ≤ 80%)”. In addition, the “IKZF2 substrate protein remaining %” value in assay [11] is “A (0% ≤ substrate protein remaining % ≤ 80%)”.

As for `O=C1CCC(N2Cc3cc(CN4CC=C(c5ncccc5F)CC4)ccc3C2=O)C(=O)N1` (stereo not shown) [GT-04689, 3-(5-((3-fluoro-3',6'-dihydro-[2,4'-bipyridin]-1'(2'H)-yl)methyl)-1-oxoisoindolin-2-yl)piperidine-2,6-dione], the IC50 in assay [1] is 10 to 50 nM; in [3], 5 to 10 nM; in assay [6], under 500 nM; in assay [7] it was 50 to 100 nM; in assay [8], 50 to 100 nM. Also, the “IKZF 1 substrate protein remaining %” value in [2] is reported as “A (0% ≤ substrate protein remaining % ≤ 80%)”. Moreover, the “CK1a substrate protein remaining %” value in assay [4] was “A (0% ≤ substrate protein remaining % ≤ 80%)”. In addition, in assay [5], the “GSPT1 substrate protein remaining %” value is recorded as “A (0% ≤ substrate protein remaining % ≤ 80%)”. Moreover, in assay [9], the “IKZF3 substrate protein remaining %” value is on record as “A (0% ≤ substrate protein remaining % ≤ 80%)”. In assay [10], the “Weel substrate protein remaining %” value is “A (0% ≤ substrate protein remaining % ≤ 80%)”. Further, the “IKZF2 substrate protein remaining %” value in [11] was “A (0% ≤ substrate protein remaining % ≤ 80%)”.

Take `O=C1CCC(N2Cc3cc(CN4CCC(c5nccc(Cl)c5Cl)CC4)ccc3C2=O)C(=O)N1` (stereo not shown) [GT-04690, 3-(5-((4-(3,4-dichloropyridin-2-yl)piperidin-1-yl)methyl)-1-oxoisoindolin-2-yl)piperidine-2,6-dione]: the IC50 in assay [1] fell in the range of 50 to 100 nM; in assay [3], 5 to 10 nM; in [6], 500 to 1000 nM; in [7], 500 to 1000 nM; in assay [8] it was 100 to 500 nM. Further, the “IKZF 1 substrate protein remaining %” value in [2] is listed as “A (0% ≤ substrate protein remaining % ≤ 80%)”. Also, the “CK1a substrate protein remaining %” value in assay [4] was “A (0% ≤ substrate protein remaining % ≤ 80%)”. The “GSPT1 substrate protein remaining %” value in [5] is “A (0% ≤ substrate protein remaining % ≤ 80%)”. The “IKZF3 substrate protein remaining %” value in assay [9] is listed as “A (0% ≤ substrate protein remaining % ≤ 80%)”. The “Weel substrate protein remaining %” value in [10] is “A (0% ≤ substrate protein remaining % ≤ 80%)”. Further, the “IKZF2 substrate protein remaining %” value in assay [11] is recorded as “A (0% ≤ substrate protein remaining % ≤ 80%)”.

On to `O=C1CCC(N2Cc3cc(CN4CC=C(c5ncnc6sccc56)CC4)ccc3C2=O)C(=O)N1` (stereo not shown) [GT-04692, 3-(1-oxo-5-((4-(thieno[2,3-d]pyrimidin-4-yl)-3,6-dihydropyridin-1(2H)-yl)methyl)isoindolin-2-yl)piperidine-2,6-dione], for which the IC50 is 10 to 50 nM in [1]; 1 to 5 nM in assay [3]; under 500 nM in [6]; 10 to 50 nM in [7]; 50 to 100 nM in [8]. Besides, the “IKZF 1 substrate protein remaining %” value in assay [2] is “A (0% ≤ substrate protein remaining % ≤ 80%)”. Also, the “CK1a substrate protein remaining %” value in [4] was “A (0% ≤ substrate protein remaining % ≤ 80%)”. The “GSPT1 substrate protein remaining %” value in assay [5] is given as “A (0% ≤ substrate protein remaining % ≤ 80%)”. For the same compound, in [9], the “IKZF3 substrate protein remaining %” value was “A (0% ≤ substrate protein remaining % ≤ 80%)”. The “Weel substrate protein remaining %” value in [10] is recorded as “A (0% ≤ substrate protein remaining % ≤ 80%)”. In [11], the “IKZF2 substrate protein remaining %” value is “A (0% ≤ substrate protein remaining % ≤ 80%)”.

For the compound `O=C1CCC(N2Cc3cc(CN4CC(=C5CCOc6cc(F)ccc65)C4)ccc3C2=O)C(=O)N1` (stereo not shown) [GT-04701, 3-(5-((3-(7-fluorochroman-4-ylidene)azetidin-1-yl)methyl)-1-oxoisoindolin-2-yl)piperidine-2,6-dione], the IC50 in [1] is 10 to 50 nM; in assay [3], 1 to 5 nM; in [6], under 500 nM; in assay [7] it was 50 to 100 nM; in assay [8], 50 to 100 nM. Moreover, the “IKZF 1 substrate protein remaining %” value in assay [2] is recorded as “A (0% ≤ substrate protein remaining % ≤ 80%)”. The “CK1a substrate protein remaining %” value in assay [4] is listed as “A (0% ≤ substrate protein remaining % ≤ 80%)”. For the same compound, the “GSPT1 substrate protein remaining %” value in assay [5] is “A (0% ≤ substrate protein remaining % ≤ 80%)”. In assay [9], the “IKZF3 substrate protein remaining %” value was “A (0% ≤ substrate protein remaining % ≤ 80%)”. The “Weel substrate protein remaining %” value in [10] is on record as “A (0% ≤ substrate protein remaining % ≤ 80%)”. Also, in assay [11], the “IKZF2 substrate protein remaining %” value is “A (0% ≤ substrate protein remaining % ≤ 80%)”.

With `Cc1cc2c(C3=CCN(Cc4ccc5c(c4)CN(C4CCC(=O)NC4=O)C5=O)CC3)ncnc2s1` (stereo not shown) [GT-04704, 3-(5-((4-(6-methylthieno[2,3-d]pyrimidin-4-yl)-3,6-dihydropyridin-1(2H)-yl)methyl)-1-oxoisoindolin-2-yl)piperidine-2,6-dione], the IC50 in assay [1] is 10 to 50 nM; in [3], 1 to 5 nM; in assay [6], under 500 nM; in [7] it was 10 to 50 nM; in [8], 10 to 50 nM. For the same compound, the “IKZF 1 substrate protein remaining %” value in assay [2] is “A (0% ≤ substrate protein remaining % ≤ 80%)”. The “CK1a substrate protein remaining %” value in [4] is “A (0% ≤ substrate protein remaining % ≤ 80%)”. Also, in assay [5], the “GSPT1 substrate protein remaining %” value is listed as “A (0% ≤ substrate protein remaining % ≤ 80%)”. Moreover, the “IKZF3 substrate protein remaining %” value in assay [9] was “A (0% ≤ substrate protein remaining % ≤ 80%)”. Moreover, the “Weel substrate protein remaining %” value in assay [10] is on record as “A (0% ≤ substrate protein remaining % ≤ 80%)”. Moreover, in [11], the “IKZF2 substrate protein remaining %” value is recorded as “A (0% ≤ substrate protein remaining % ≤ 80%)”.

`O=C1CCC(N2Cc3cc(CN4CC=C(c5ncc6ccsc6n5)CC4)ccc3C2=O)C(=O)N1` (stereo not shown) [GT-04708, 3-(1-oxo-5-((4-(thieno[2,3-d]pyrimidin-2-yl)-3,6-dihydropyridin-1(2H)-yl)methyl)isoindolin-2-yl)piperidine-2,6-dione]: the IC50 fell in the range of 5 to 10 nM in assay [1]; 1 to 5 nM in assay [3]; 500 to 1000 nM in assay [6]; 10 to 50 nM in [7]; 10 to 50 nM in assay [8]. In addition, the “IKZF 1 substrate protein remaining %” value in assay [2] is on record as “B (80%< substrate protein remaining %≤ 100%)”. Also, the “CK1a substrate protein remaining %” value in assay [4] is reported as “A (0% ≤ substrate protein remaining % ≤ 80%)”. The “GSPT1 substrate protein remaining %” value in assay [5] is recorded as “A (0% ≤ substrate protein remaining % ≤ 80%)”. The “IKZF3 substrate protein remaining %” value in assay [9] is “B (80%< substrate protein remaining %≤ 100%)”. Moreover, in assay [10], the “Weel substrate protein remaining %” value is on record as “A (0% ≤ substrate protein remaining % ≤ 80%)”. The “IKZF2 substrate protein remaining %” value in assay [11] is “B (80%< substrate protein remaining %≤ 100%)”.

Consider `O=C1CCC(N2Cc3cc(CN4CCC(c5c[nH]c6cc(F)ccc56)CC4)ccc3C2=O)C(=O)N1` (stereo not shown) [GT-04713, 3-(5-((4-(6-fluoro-1H-indol-3-yl)piperidin-1-yl)methyl)-1-oxoisoindolin-2-yl)piperidine-2,6-dione], for which the IC50 was 1 to 5 nM in assay [1]; 1 to 5 nM in assay [3]; 500 to 1000 nM in assay [6]; 10 to 50 nM in assay [7]; 5 to 10 nM in assay [8]. Moreover, the “IKZF 1 substrate protein remaining %” value in [2] was “A (0% ≤ substrate protein remaining % ≤ 80%)”. For the same compound, in assay [4], the “CK1a substrate protein remaining %” value is “A (0% ≤ substrate protein remaining % ≤ 80%)”. For the same compound, the “GSPT1 substrate protein remaining %” value in [5] is given as “A (0% ≤ substrate protein remaining % ≤ 80%)”. For the same compound, the “IKZF3 substrate protein remaining %” value in [9] was “A (0% ≤ substrate protein remaining % ≤ 80%)”. Besides, the “Weel substrate protein remaining %” value in assay [10] is “A (0% ≤ substrate protein remaining % ≤ 80%)”. Besides, in assay [11], the “IKZF2 substrate protein remaining %” value was “A (0% ≤ substrate protein remaining % ≤ 80%)”.
